In publication PMC12396409, “Screening and hit evaluation of a microbial metabolite library against the pathogenic Plasmodium falciparum and Toxoplasma gondii parasites” (International Journal for Parasitology: Drugs and Drug …, 2025):
Read-outs that look alike come from different tables or passages of the source.

Tests used:
[1] = system: P. falciparum 3D7 parasites; assay: P. falciparum growth inhibition assay, 1-cycle (72 h treatment), SYBR DNA staining (library screen at 2 μg/mL and dose-response); format: cell-based, Plasmodium falciparum
[2] = system: P. falciparum 3D7 parasites; assay: P. falciparum growth inhibition assay, 2-cycle (120 h treatment), delayed-death screen and dose-response; format: cell-based, Plasmodium falciparum
[3] = system: T. gondii RH strain (RH-Tub-eYFP) tachyzoites; assay: microbe, parasite or virus in culture; format: cell-based, Toxoplasma gondii; settings: 72 h, 72 h; for percent parasite growth at 2 µg/mL: Toxoplasma gondii
[4] = library screen at 2 μg/mL, % growth, replicate 1, read-out: Tg_72h_%Growth_Rep1
[5] = library screen at 2 μg/mL, % growth, replicate 2, read-out: Tg_72h_%Growth_Rep2
[6] = T. gondii, screen at 2 μg/mL, replicate 1, read-out: Tg_72h_%Growth_Rep1
[7] = T. gondii, screen at 2 μg/mL, replicate 2, read-out: Tg_72h_%Growth_Rep2
[8] = Plasmodium falciparum, 3D7, P. falciparum, 72 h, screen at 2 μg/mL, replicate 1, read-out: Pf_72h_%Growth_Rep1
[9] = Plasmodium falciparum, 3D7, P. falciparum, 72 h, screen at 2 μg/mL, replicate 2, read-out: Pf_72h_%Growth_Rep2
[10] = Plasmodium falciparum, 3D7, P. falciparum, 120 h, screen at 2 μg/mL, replicate 1, read-out: Pf_120h_%Growth_Rep1
[11] = Plasmodium falciparum, 3D7, P. falciparum, 120 h, screen at 2 μg/mL, replicate 2, read-out: Pf_120h_%Growth_Rep2

## COc1cccc2c1C(=O)c1c(O)c3c(c(O)c1C2=O)C[C@@](O)(C(=O)CO)C[C@@H]3O[C@H]1C[C@H](N)[C@H](O)[C@H](C)O1 [Doxorubicin]
[1]; Plasmodium falciparum, 3D7, 72 h, library screen at 2 μg/mL, 72 h, % growth, replicate 1, read-out: Pf_72h_%Growth_Rep1
  activity at 2 µg/mL: 51.3%
[1]; Plasmodium falciparum, 3D7, 72 h, library screen at 2 μg/mL, 72 h, % growth, replicate 2, read-out: Pf_72h_%Growth_Rep2
  activity at 2 µg/mL: 57.9%
[2]; Plasmodium falciparum, 3D7, 120 h, library screen at 2 μg/mL, 120 h, % growth, replicate 1, read-out: Pf_120h_%Growth_Rep1
  activity at 2 µg/mL: 15.8%
[2]; Plasmodium falciparum, 3D7, 120 h, library screen at 2 μg/mL, 120 h, % growth, replicate 2, read-out: Pf_120h_%Growth_Rep2
  activity at 2 µg/mL: 35.7%
[3]; [4]
  percent parasite growth at 2 µg/mL: 214%
[3]; [5]
  percent parasite growth at 2 µg/mL: 123%

## CN1C(=O)[C@@]23C[C@]4([C@]56C[C@@]78SS[C@@](CO)(C(=O)N7[C@H]5Nc5ccccc56)N(C)C8=O)c5ccccc5N[C@@H]4N2C(=O)[C@]1(CO)SS3 [Chaetocin]
[1]; Plasmodium falciparum, 3D7, 72 h, P. falciparum, 72 h, screen at 2 μg/mL, replicate 1, read-out: Pf_72h_%Growth_Rep1
  activity at 2 µg/mL: 10.9%
[1]; Plasmodium falciparum, 3D7, 72 h, P. falciparum, 72 h, screen at 2 μg/mL, replicate 2, read-out: Pf_72h_%Growth_Rep2
  activity at 2 µg/mL: 11.2%
[2]; Plasmodium falciparum, 3D7, 120 h, P. falciparum, 120 h, screen at 2 μg/mL, replicate 1, read-out: Pf_120h_%Growth_Rep1
  activity at 2 µg/mL: 16.4%
[2]; Plasmodium falciparum, 3D7, 120 h, P. falciparum, 120 h, screen at 2 μg/mL, replicate 2, read-out: Pf_120h_%Growth_Rep2
  activity at 2 µg/mL: 23.8%
[3]; [6]
  percent parasite growth at 2 µg/mL: 0.84%
[3]; [7]
  percent parasite growth at 2 µg/mL: 2.33%

## CC[C@]1(C)C[C@@H](OC(=O)CSc2nnc(N)[nH]2)[C@]2(C)[C@H](C)CC[C@]3(CCC(=O)[C@H]32)[C@@H](C)[C@@H]1O [Azamulin]
[1]; Plasmodium falciparum, 3D7; P. falciparum, 2 μg/mL, 72 h; read-out: 1) Growth (%) at 72 h
  activity at 2 µg/mL: 61.2%
[1]; Plasmodium falciparum, 3D7, library screen at 2 μg/mL, 72 h, % growth, replicate 1, read-out: Pf_72h_%Growth_Rep1
  activity at 2 µg/mL: 59.3%
[1]; Plasmodium falciparum, 3D7, library screen at 2 μg/mL, 72 h, % growth, replicate 2, read-out: Pf_72h_%Growth_Rep2
  activity at 2 µg/mL: 63.1%
[2]; 2 μg/mL, criteria: ≥40 % growth at 72 h, ≤20 % growth at 120 h, at least 5-fold
  delayed-death activity in the 120 h screen against P. falciparum: delayed-death activity
[2]; P. falciparum, growth at 72 h / growth at 120 h, 2 μg/mL
  3) Fold change (72 h/120 h): 6.9
[2]; Plasmodium falciparum, 3D7; P. falciparum, 2 μg/mL, 120 h; read-out: 2) Growth (%) at 120 h
  activity at 2 µg/mL: 8.89%
[2]; Plasmodium falciparum, 3D7, library screen at 2 μg/mL, 120 h, % growth, replicate 1, read-out: Pf_120h_%Growth_Rep1
  activity at 2 µg/mL: 15.6%
[2]; Plasmodium falciparum, 3D7, library screen at 2 μg/mL, 120 h, % growth, replicate 2, read-out: Pf_120h_%Growth_Rep2
  activity at 2 µg/mL: 2.17%
[3]; [4]
  percent parasite growth at 2 µg/mL: 65.2%
[3]; [5]
  percent parasite growth at 2 µg/mL: 70.7%
[3]; library screen at 2 μg/mL, RH strain
  Screen (T. gondii): I

## CC(=O)c1c(O)c(C)c(O)c2c1OC1=CC(=O)C(C(C)=O)C(=O)C12C (centres unmarked) [Usnic acid]
[1]; [8]
  activity at 2 µg/mL: 82.8%
[1]; [9]
  activity at 2 µg/mL: 126%
[2]; [10]
  activity at 2 µg/mL: 101%
[2]; [11]
  activity at 2 µg/mL: 102%
[3]; [6]
  percent parasite growth at 2 µg/mL: 115%
[3]; [7]
  percent parasite growth at 2 µg/mL: 87.6%

## COc1c(O)c2c(=O)cc3c4c5c(cc(=O)c6c(O)c(OC)c(C[C@H](C)OC(C)=O)c(c(c1C[C@H](C)OC(C)=O)c24)c65)OCO3 [Diacetylcercosporin]
[1]; library screen at 2 μg/mL, 72 h, % growth, replicate 1
  Pf_72h_%Growth_Rep1: 2.60%
[1]; library screen at 2 μg/mL, 72 h, % growth, replicate 2
  Pf_72h_%Growth_Rep2: 15.99%
[2]; library screen at 2 μg/mL, 120 h, % growth, replicate 1
  Pf_120h_%Growth_Rep1: -5.54%
[2]; library screen at 2 μg/mL, 120 h, % growth, replicate 2
  Pf_120h_%Growth_Rep2: 6.35%
[3]; library screen at 2 μg/mL, % growth, replicate 1
  Tg_72h_%Growth_Rep1: 4.49%
[3]; library screen at 2 μg/mL, % growth, replicate 2
  Tg_72h_%Growth_Rep2: 14.87%

## C[C@H]1CCC[C@H](O)CCCCCc2cc(O)cc(O)c2C(=O)O1 [Zearalanol, alpha-]
[1]; P. falciparum, 72 h, screen at 2 μg/mL, replicate 1
  Pf_72h_%Growth_Rep1: 80.84%
[1]; P. falciparum, 72 h, screen at 2 μg/mL, replicate 2
  Pf_72h_%Growth_Rep2: 78.13%
[2]; P. falciparum, 120 h, screen at 2 μg/mL, replicate 1
  Pf_120h_%Growth_Rep1: 88.76%
[2]; P. falciparum, 120 h, screen at 2 μg/mL, replicate 2
  Pf_120h_%Growth_Rep2: 84.84%
[3]; T. gondii, screen at 2 μg/mL, replicate 1
  Tg_72h_%Growth_Rep1: 162.37%
[3]; T. gondii, screen at 2 μg/mL, replicate 2
  Tg_72h_%Growth_Rep2: 92.02%

## CC[C@H](C)C(=O)[C@@H](C)C1=CC(=O)C2=C(O[C@]3(C)CC[C@H]4O[C@@H](C(C)(C)O)CC[C@]4(C)[C@H]3C2)C1=O [Cochlioquinone B]
[1]; [8]
  activity at 2 µg/mL: 61.4%
[1]; [9]
  activity at 2 µg/mL: 52.9%
[2]; [10]
  activity at 2 µg/mL: 47%
[2]; [11]
  activity at 2 µg/mL: 44.2%
[3]; [6]
  percent parasite growth at 2 µg/mL: 110%
[3]; [7]
  percent parasite growth at 2 µg/mL: 83.8%
